Source: patent publication US20210015793A1, “COMPOUNDS FOR TREATING CNS- AND NEURODEGENERATIVE DISEASES” (ETH ZURICH, priority 2018, published 2021)
Like-named read-outs stand apart in the source and are kept apart here.

Assay: Serum concentration by HPLC in healthy human research participants (phase-1 study)
Type: in vivo
Settings: for concentration at 24 h: both sexes, human, serum, oral, 60 mg/day
Method: Dog serum concentrations of Compound-1, Compound-1F and Compound-4 were determined with serum isolated from the blood of German shepherd dogs (age: 8-9 months) taken at different time points (2 h, 4 h, 6 h, 8, 10 h, 24 h) after oral drug intake. The steady-state serum concentrations of Compound-1, Compound-1F and Compound-4 were determined in mice with blood isolated at the end of the study by cardiac puncture. Serum proteins were removed by acetonitrile precipitation, and compounds were extracted by chloroform before separation on an HPLC-C18 column (Poroshell 120 EC-C18, Agilent) with an HPLC system (Agilent 1100 Series) and detection at OD 280 nm, for Compound-1 and Compound-1F. Detection of Compound-4 was performed at OD 310 nm. The same extraction method was also used to determine Compound-1F in the serum of healthy human research participants. Dog hematology and biochemical parameters were determined by the Center of Applied Analytical and Veterinary Studies, Cairo, Egypt. ECG and blood pressure were measured by Dr. Mohamed Elsaed, Electrocardiography Unit, Faculty of Veterinary Medicine, Cairo University. The study was approved by the ethical committee of the Center of Applied and Veterinary Studies, Cairo, Egypt. Clinical laboratory parameters of human research participants were determined by the Rabaa El Adaweya Medical Central Hospital, Cairo, Egypt.
Study design: The study was a three-part phase-1, randomized, placebo-controlled study of Compound-1F. The primary end-point was safety and tolerability. Secondary objectives were plasma pharmacokinetics data (part-1, part-2, part-3) and peripheral blood mononuclear cell MPP1 status (part-3).
The first part (part-1) was a single ascending dose-effect study with three cohorts of 4 healthy research participants each, who received a single dose of 20 mg, 40 mg or 60 mg in subsequent cohorts. Three drug-treated and one placebo-treated subjects were randomized in each cohort (2 males, 2 females; age: 35-65 years). After completion of safety assessment, blood was drawn for analysis of pharmacokinetics data.
In the second part (part-2) of the study, the daily dose was increased every two days until the final dose of 60 mg/day was reached, i.e. the daily dose was 20 mg on day-1 and day-2, 40 mg on day-3 and day-4, and 60 mg on day-5 until day-14. Blood was drawn before study begin for analysis of laboratory parameters and on day-14 for analysis of laboratory parameters and determination of pharmacokinetics data, at the indicated time points after administration of the last dose of 60 mg. All study participants (n=10; 7 males, 3 females; Caucasians; age: 37-66 years; 8 participants received drug, and two received placebo) were healthy and had the possibility to withdraw from the study at any time. All study participants wanted to complete the study.
In the third part (part-3) of the study, a cohort of 8 healthy elderly voluntary research participants (7 males, 1 female; age 60-73 years; all Caucasians) received a daily oral dose of 60 mg of Compound-1F for 28 days (6 participants received drug, 2 placebo). In part-3 of the study, blood was drawn before study begin for analysis of clinical laboratory parameters and MPP1 status, and on day-28 for analysis of laboratory parameters and MPP1 status, and 24 h after the last drug intake for measurement of serum concentration of Compound-1F. […]

O=C(C1=C(O)C(c2ccc(F)cc2)N(c2ccc3c(c2)OCO3)C1=O)C1CC1 (centres unmarked) [Compound-1F, 1-(1,3-Benzodioxol-5-yl)-4-(cyclopropanecarbonyl)-2-(4-fluorophenyl)-3-hydroxy-2H-pyrrol-5-one]
concentration at 24 h (elderly research participants, 28 days once daily 60 mg, read-out: steady-state serum concentration at 24 h after the last drug intake): 1540 ± 310 ng/mL | concentration at 24 h (healthy humans, repeated dosing 60 mg/day, read-out: serum concentration at 24 h after intake of the last dose): 1470 ± 330 ng/mL | dose dependence of serum concentration (healthy humans, oral Compound-1F 20, 40, 60 mg): dose-dependent increase | peak serum concentration at t=6 h (healthy humans, repeated dosing 60 mg/day, n=8): 5.33 ± 0.76 µg/mL | time of peak serum concentration after drug intake (healthy humans, repeated dosing with 60 mg/day): 6 h
